Data taken from patent publication US20140350119A1, “OPHTHALMIC COMPOSITION COMPRISING GERANYLGERANYLACETONE” (ROHTO PHARMACEUTICAL CO., LTD., priority 2012, published 2014).

How the values were obtained:
[1] = test system: PC12; assay: Protective effect against ischemic cell death induced by hypoxia and low glucose (cell viability, Cell Titer-Glo); type: cell-based, rat; conditions: 30 μM, 2 h, then low glucose, zero percent O2, 8 h, FIG. 1, Tukey-Kramer test
Text: The progress of visual impairment in glaucoma is associated with retinal ganglion cell (RGC) death due to blood flow failure occurring near the optic nerve (Folia Pharmacol. Jpn. 128, 255-258 (2006)). With the use of PC12, which is a typical neural cell line established from rat adrenal […] pheochromocytoma and used also as a model cell for the functional evaluation of RGC (J Neurosci Res. 2000 May 15; 60(4): 495-503.), the cytoprotective effect of GGA against ischemic cell death induced by hypoxia and low glucose was evaluated.
Test samples were prepared as follows. The test substances were four types of GGAs that contain the all-trans form and the 5Z-mono-cis form at a weight ratio of 10:0, 8:2, 6:4, and 0:10, respectively. […]
After 8 hours of incubation, 100 μL of an equivalent mixture of a cell viability detection reagent Cell Titer-Glo (Promega) and PBS was added to each well and the luminescence produced by the reaction with ATP in living cells was measured with a luminometer (GloMax; Promega). The cell viability was calculated from the measured luminescence by the following formula and the cytoprotective effect of GGA against […] was examined.
Cell viability (%)=100×[(luminescence of base- or GGA-treated group)/(luminescence of non-treated group)]

[2] = test system: rat models with glaucoma induced by NMDA; assay: Protective effect for retinal ganglion cells against nerve damage by NMDA (thickness of inner plexiform layer); type: in vivo, Sprague-Dawley (SD) rats; conditions: once per day
Text: In recent years the glutamate analogue NMDA (N-methyl-D-aspartate) has been widely reported to be one of causative agents of neurodegenerative diseases including Alzheimer's disease. In the ophthalmic field, NMDA is considered to be involved in optic nerve damage in glaucoma (Brain Research Bulletin, 81 (2010) 349-358). Accordingly, in this experiment rat models with glaucoma induced by NMDA were used to evaluate the neuroprotective effect of GGA.
To Sprague-Dawley (SD) rats, the all-trans form, the 5Z-mono-cis form and teprenone were separately pre-administered by oral administration (Test Example 1), intravitreal administration (Test Example 2) or ocular instillation administration (Test Example 3) and 5 μL of NMDA was administered into the vitreous body to induce nerve damage. For Test Example 2, a marketed therapeutic eye drop for glaucoma, AIPHAGAN (trade name), was intravitreally administered as a positive control once a day for five days. For each of Test Examples, a base not containing GGA or AIPHAGAN was administered as a control in the same manner as described above.
The dosage and regimen of Test Examples 1 to 3 are shown in Table 1 and the constitution of the base used in each tests are shown in Table 2.
Three days after administration of NMDA, the eyeballs were harvested, fixed with half Karnovsky's fixative for 24 hours, embedded in paraffin, thin sectioned and stained with hematoxylin-eosin (HE) to prepare histopathological sections. The histological sections were observed under an optical microscope and the thickness (μm) of the inner plexiform layer (IPL) of the retina was measured. From the thickness of the inner plexiform layer (IPL) of the retina, the neuroprotective effects of the test preparations were evaluated.

[3] = test system: mouse with visual cell damage induced by light irradiation; conditions: oral administration; Non Patent Literature 3; cited from earlier work
[4] = test system: retinal detachment-induced animal; conditions: intraperitoneal administration; Non Patent Literature 1; cited from earlier work
[5] = test system: multiple sclerosis mouse model; conditions: oral administration; Non Patent Literature 5; cited from earlier work
[6] = test system: mouse with retinal injury induced by ischemia; conditions: oral administration; Non Patent Literature 4; cited from earlier work
[7] = test system: glaucoma rat model; conditions: intraperitoneal administration; Non Patent Literature 2; cited from earlier work
[8] = Test Example 1: oral, 800 mg/kg, 2 days, NMDA 4 mM, FIG. 6

Molecule | Cytoprotective effect compared with GGA of weight ratio 6:4 [1] | Neuroprotective effect against nerve damage by NMDA compared with the base (IPL thickness) [2, 8] | Neuroprotective effect against nerve damage by NMDA compared with the base (IPL thickness) ([2]; Test Example 2: intravitreal, 0.05% w/v, 5 days, NMDA 40 mM, FIG. 7) | Thioredoxin and heat shock protein 72 in the retinal pigment epithelium [3] | Apoptosis of visual cells [4] | Expression of heat shock protein 70 [4] | Cell loss in the ganglion [5] | Number of degenerating axons in the optic nerve [5] | Visual function [5] | Number of surviving retinal neurons [6] | Expression of heat shock protein 72 [7] | Optic nerve damage [7] | Retinal ganglion cell death [7]
CC(=O)CC/C=C(/C)CC/C=C(\C)CC/C=C(\C)CCC=C(C)C [5Z-mono-cis form, (5Z,9E,13E)-6,10,14,18-tetramethyl-5,9,13,17-nonadecatetrae n-2-one] | significantly higher cytoprotective effects | significant neuroprotective effects | significant neuroprotective effects | – | – | – | – | – | – | – | – | – | –
teprenone | – | did not show a significant neuroprotective effect | – | induced thioredoxin and heat shock protein 72 | reduced the apoptosis of visual cells significantly | induced the expression of heat shock protein 70 | prevented cell loss | reduced the number of degenerating axons | improved the visual function | significantly increased | induced the expression of heat shock protein 72 | ameliorated optic nerve damage | reduced retinal ganglion cell death
